{
  "source": "patent US20230365625A1",
  "about": "“METHODS FOR TREATING AND/OR PREVENTING UNDESIRABLE SEQULAE OF NASAL TURBINOPLASTY OR FUNCTIONAL ENDOSCOPIC SINUS SURGERY” (3-D Matrix, Ltd., priority 2022, published 2023)",
  "key": {"[1]": {"tested_on": "mucosa at the operated middle turbinate sites", "test": "Histopathology of the surgical site at 6 weeks (H&E, 6 markers of wound healing), sheep model", "format": "in vivo, Merino sheep", "procedure": "Termination—At day 42, the animals were euthanized with standard terminal procedures through an intravenous injection of sodium pentobarbital. Post-termination, the mucosa at the operated middle turbinate sites were excised and prepared via hematoxylin and eosin staining by a veterinary histopathologist using 6 different markers of wound healing as shown in Table 3. [table] Histopathology observations—Vertical incisions through the roof and floor of the nasal cavity were performed during necropsy after endoscopic evaluation. This allowed both lateral nasal walls to be opened outwards from the septum whereby the operated mucosa adjacent to the vomer could be easily identified and excised atraumatically. Specimens were preserved in 10% neutral buffered formalin and transported for hematoxylin and eosin staining and slide preparation. Example specimens are shown in FIGS. 4A and 4B for PuraSinus treated tissue and FIGS. 5A and 5B for FLOSEAL treated tissue. Individual sample observations are presented in Appendix 3."}, "[2]": {"tested_on": "Functional Endoscopic Sinus Surgery (FESS) surgical wound", "format": "in vivo, human", "from_the_text": "Study design—This study was a retrospective chart review of 94 consecutive human patients who underwent FESS and who were operated on by a single surgeon in a single center in Perth, Western Australia. FIGS. 6A and 6B show a flowchart of patients based on extent of surgery and outcomes. Only patients treated with PuraSinus alone (no other hemostatic agent was used) were included in the analysis. Ethics approval was obtained from St John of Good Health Care Human Research Ethics Committee.\nPatient population—The study included adult human patients who underwent FESS procedures and also included patients who underwent FESS in combination with nasal surgery (septoplasty and/or turbinoplasty). Both primary and revision cases were included. Patients were discharged the day after surgery with a recommendation to perform saline nasal irrigations no less than four times a day. Patient characteristics, indication for surgery, extent of surgical intervention, and bleeding and adhesion information was recorded.\nSurgical categories—Procedures were performed according to the minimally invasive sinus technique (MIST), including combination of maxillary antrostomy, ethmoidectomies, sphenoidotomies and frontal sinus (Draf Ila, or Draf 111), turbinate reduction and/or septoplasty. FESS procedures were categorized into two groups: complete FESS (including all sinuses—maxillary antrostomy, ethmoidectomy, sphenoidotomy, and frontal sinusotomy) or limited FESS (anything less than complete FESS, usually involves antrostomy and ethmoidectomy). The surgical extent was dictated by the patient's condition and the surgeon's clinical judgement.\nMaterial used—PuraSinus (licensed as PuraStat in Australia, 3D-Matrix)/RADA16-I (SEQ ID NO:1) 2.5% w/v in water is a transparent SAP solution supplied sterile in a pre-filled syringe (available in a 3 mL and 5 mL form) ready for use with a thin application nozzle suited for endoscopic catheter administration. The syringe is stored at between 2° C. and 8° C. At completion of the FESS procedure, PuraSinus was applied to the surgical wound in a thin and even layer as close as possible to the bleeding point. A similar application technique has been outlined previously (M. Lee et al., Int. J. Surg. Case Rep. 41: 461-4 (2017)). […] Tissues treated with the hydrogel were visible via endoscope given the gel's transparency.\nOutcomes and objectives—The objectives of this study were to evaluate the effectiveness of PuraSinus in rapidly achieving intraoperative hemostasis and to assess the incidence of delayed bleeding ([…]) and synechiae formation via endoscopic observation of the nasal mucosa at follow-up visits. Primary bleeding was defined as bleeding occurring within 24 hours of surgery.\nData analysis—Statistical analysis was performed using descriptive statistics for continuous variables and patient demographics were reported. The rate of successful hemostasis and incidence of synechiae formation were calculated as a proportion of total patients undergoing FESS.\nAdhesions—Nasal endoscopic examination of each patient was performed at a first follow-up visit occurring between 7 and 30 days after surgery (median 15 days, mean±SD 14.0±3.7 days). A subsequent follow-up examination of each patient was performed on average on day 42, ranging from 28 to 79 days post-surgery. […] Debridement of the observed synechiae was performed in these cases in the outpatient setting by either suction (n=13) or scissors (n=10). […] Thus, the desired outcome of intraoperative treatment with PuraSinus (SEQ ID NO:1) in achieving recovery without synechiae formation in these patients was nearly 90% (n=84/94). None of the patients who had required additional intervention for hemostasis subsequently presented with adhesion formation."}, "[3]": {"conditions": "individual site, 6 weeks, scale 0-3, listed as P"}, "[4]": {"conditions": "individual site, 6 weeks, scale −1-1, listed as P"}},
  "note": "Where “and” joins values, the source holds several entries; their conditions need not be identical. Identical values can stand only once. Entries after “also recorded” stand apart in the source; their conditions may differ.",
  "data": [
    {"smiles": "CC(=O)N[C@@H](CCCNC(=N)N)C(=O)N[C@@H](C)C(=O)N[C@@H](CC(=O)O)C(=O)N[C@@H](C)C(=O)N[C@@H](CCCNC(=N)N)C(=O)N[C@@H](C)C(=O)N[C@@H](CC(=O)O)C(=O)N[C@@H](C)C(=O)N[C@@H](CCCNC(=N)N)C(=O)N[C@@H](C)C(=O)N[C@@H](CC(=O)O)C(=O)N[C@@H](C)C(=O)N[C@@H](CCCNC(=N)N)C(=O)N[C@@H](C)C(=O)N[C@@H](CC(=O)O)C(=O)N[C@@H](C)C(N)=O", "note": "[PuraSinus, Ac-RADARADARADARADA-NH2]", "values": [
      {"measurement": "Angiogenesis (A): number of sites Grade 0", "setting": "[1]; 6 weeks", "value": 9},
      {"measurement": "Angiogenesis (A): number of sites Grade 1", "setting": "[1]; 6 weeks", "value": 6},
      {"measurement": "Angiogenesis (A): number of sites Grade 2", "setting": "[1]; 6 weeks", "value": 4},
      {"measurement": "Angiogenesis (A): number of sites Grade 3", "setting": "[1]; 6 weeks", "value": 1},
      {"measurement": "Epithelial erosion (EE): number of sites Grade 0", "setting": "[1]; 6 weeks", "value": 5},
      {"measurement": "Epithelial erosion (EE): number of sites Grade 1", "setting": "[1]; 6 weeks", "value": 8},
      {"measurement": "Epithelial erosion (EE): number of sites Grade 2", "setting": "[1]; 6 weeks", "value": 6},
      {"measurement": "Epithelial erosion (EE): number of sites Grade 3", "setting": "[1]; 6 weeks", "value": 1},
      {"measurement": "Goblet cells (GC): number of sites Grade 0", "setting": "[1]; 6 weeks", "value": 6},
      {"measurement": "Goblet cells (GC): number of sites Grade +1", "setting": "[1]; 6 weeks", "value": 6},
      {"measurement": "Goblet cells (GC): number of sites Grade −1", "setting": "[1]; 6 weeks", "value": 8},
      {"measurement": "Inflammatory infiltrate (II): number of sites Grade 0", "setting": "[1]; 6 weeks", "value": 3},
      {"measurement": "Inflammatory infiltrate (II): number of sites Grade 1", "setting": "[1]; 6 weeks", "value": 13},
      {"measurement": "Inflammatory infiltrate (II): number of sites Grade 2", "setting": "[1]; 6 weeks", "value": 4},
      {"measurement": "Inflammatory infiltrate (II): number of sites Grade 3", "setting": "[1]; 6 weeks", "value": 0},
      {"measurement": "Sero-mucous glands (SMC): number of sites Grade 0", "setting": "[1]; 6 weeks", "value": 14},
      {"measurement": "Sero-mucous glands (SMC): number of sites Grade +1", "setting": "[1]; 6 weeks", "value": 0},
      {"measurement": "Sero-mucous glands (SMC): number of sites Grade −1", "setting": "[1]; 6 weeks", "value": 6},
      {"measurement": "Submucosal fibrosis (SF): number of sites Grade 0", "setting": "[1]; 6 weeks", "value": 4},
      {"measurement": "Submucosal fibrosis (SF): number of sites Grade 1", "setting": "[1]; 6 weeks", "value": 12},
      {"measurement": "Submucosal fibrosis (SF): number of sites Grade 2", "setting": "[1]; 6 weeks", "value": 3},
      {"measurement": "Submucosal fibrosis (SF): number of sites Grade 3", "setting": "[1]; 6 weeks", "value": 1},
      {"measurement": "Mucosal regeneration / wound healing on histopathology", "setting": "[1]; 6 weeks, result in words", "value": "favorable outcomes for wound healing enhancement across all 6 metrics; also recorded: enhancement to mucosal regeneration; also recorded: more commonly associated with enhanced mucosal regeneration; also recorded: improved outcome"},
      {"measurement": "Angiogenesis (A): Mean score", "setting": "[1]; 6 weeks, scale 0-3", "value": 0.85},
      {"measurement": "Epithelial erosion (EE): Mean score", "setting": "[1]; 6 weeks, scale 0-3", "value": 1.15},
      {"measurement": "Inflammatory infiltrate (II): Mean score", "setting": "[1]; 6 weeks, scale 0-3", "value": 1.05},
      {"measurement": "Submucosal fibrosis (SF): Mean score", "setting": "[1]; 6 weeks, scale 0-3", "value": 1.05},
      {"measurement": "Goblet cells (GC): Mean score", "setting": "[1]; 6 weeks, scale −1-1", "value": "−0.1"},
      {"measurement": "Sero-mucous glands (SMC): Mean score", "setting": "[1]; 6 weeks, scale −1-1", "value": "−0.3"},
      {"measurement": "A (angiogenesis) grade", "setting": "[1]; [3]", "value": "1 (6×) and 3 and 0 (9×) and 2 (4×)"},
      {"measurement": "EE (epithelial erosion) grade", "setting": "[1]; [3]", "value": "1 (8×) and 2 (6×) and 0 (5×) and 3"},
      {"measurement": "II (inflammatory infiltrate) grade", "setting": "[1]; [3]", "value": "2 (4×) and 1 (13×) and 0 (3×)"},
      {"measurement": "SF (submucosal fibrosis) grade", "setting": "[1]; [3]", "value": "1 (12×) and 2 (3×) and 0 (4×) and 3"},
      {"measurement": "GC (goblet cells) grade", "setting": "[1]; [4]", "value": "−1 (8×) and 1 (6×) and 0 (6×)"},
      {"measurement": "SMC (sero-mucous glands) grade", "setting": "[1]; [4]", "value": "−1 (6×) and 0 (14×)"},
      {"measurement": "6-week histopathology scores", "setting": "[1]; result in words, driven by reduced submucosal fibrosis and angiogenesis", "value": "significantly lower"},
      {"measurement": "Adhesion formation at first follow up visit, patients", "setting": "[2]; 7-30 days after surgery", "value": 18},
      {"measurement": "Persisting adhesions, patients", "setting": "[2]; final outcome, of 23", "value": 5},
      {"measurement": "Resolved adhesions, patients", "setting": "[2]; final outcome, of 23", "value": 18},
      {"measurement": "Adhesion formation, total patients", "setting": "[2]; full follow-up period, n of 94", "value": 23},
      {"measurement": "Adhesion (synechiae) formation, rate", "setting": "[2]; full follow-up period, of 94 patients", "value": 24.5, "unit": "%"},
      {"measurement": "Pain at the surgical site", "setting": "[2]; human, in vivo", "value": "all patients expressed comfort with no pain"},
      {"measurement": "Patients with no adhesions found", "setting": "[2]; n of 94", "value": 71},
      {"measurement": "Adhesion location: Inferior turbinate/septum + medial turbinate/lateral wall, patients", "setting": "[2]; of 23", "value": 4},
      {"measurement": "Adhesion location: Inferior turbinate/septum, patients", "setting": "[2]; of 23", "value": 12},
      {"measurement": "Adhesion location: Medial turbinate/lateral wall, patients", "setting": "[2]; of 23", "value": 7},
      {"measurement": "Debridement by scissors (sharp), patients", "setting": "[2]; of 23", "value": 10},
      {"measurement": "Debridement by suction, patients", "setting": "[2]; of 23", "value": 13},
      {"measurement": "Patients with adhesion formation: Complete FESS", "setting": "[2]; of 23", "value": 8},
      {"measurement": "Patients with adhesion formation: Female", "setting": "[2]; of 23", "value": 16},
      {"measurement": "Patients with adhesion formation: Limited FESS", "setting": "[2]; of 23", "value": 15},
      {"measurement": "Patients with adhesion formation: Male", "setting": "[2]; of 23", "value": 7},
      {"measurement": "Patients free of adhesions, rate", "setting": "[2]; second follow-up examination, of 94 patients", "value": "~90% and 89.4%"},
      {"measurement": "Patients without adhesions", "setting": "[2]; second follow-up, no adhesions or adhesions easily removed by suction, of 94", "value": "84 and 84/94"}
    ]}
  ]
}
